Patent US10555987B2, “GHRH agonists for the treatment of ischemic disorders” (UNIVERSITY OF MIAMI, priority 2012, dated 2020)
Marks after values point to notes of the source that are not given here. Non-standard residues stand in square brackets, D forms with d. Residues, ends and D or L forms follow the SMILES beside them. *: point of attachment. Desaminotyrosyl = O=C(CCc1ccc(O)cc1)*; NMeY = CN[C@@H](Cc1ccc(O)cc1)C(=O)O; Agmatine = N=C(N)NCCCCN*; Nle = CCCC[C@H](N)C(=O)O; Orn = NCCC[C@H](N)C(=O)O; Abu = CC[C@H](N)C(=O)O; Ava = NCCCCC(=O)O

Legend:
GH release [1] = assay: In vivo endocrine activity, GH release after subcutaneous administration (Table 9); conditions: rat, subcutaneous (s.c.) injection
Procedure: Subcutaneous Administration. Adult male rats were used and anesthetized with pentobarbital (6 mg/100 g, b.w.), by i.p. injection. […] Blood samples were taken from the jugular vein 5, 15 and/or 30 minutes after the injection. The blood samples were centrifuged, plasma was removed and the GH level was measured byELISA. The results are summarized in terms of potency in Table 9.

GH release [2] = assay: GH releasing potency in vivo, subcutaneous administration (Example 14, Table 12); set-up: species or system rat; conditions: s.c.; for Serum GH level at selected time after injection (ng/ml), 0 min / Serum GH level at selected time after injection (ng/ml), 15 min / Serum GH level at selected time after injection (ng/ml), 30 min: male rats, dose 3 μg/kg, mean ± SEM
Procedure: Male Sprague-Dawley rats, weighing 200-250 g, were purchased from Charles River Laboratory (Wilmington, Mass.) and used for experiments. All animal procedures were approved by the Veterans Affairs Animal Care and Use Committee and were conducted in accordance with additional institutional guidelines as well. Briefly, groups of 5-6 animals were used in each experiment. The rats were anesthetized with 50 mg/kg of sodium pentobarbital (Nembutal, Lundbeck Inc., Deerfield, Ill.). Twenty min after inducing anesthesia, GHRH(1-29)NH2, JI-38, or new analogs were injected into the animals intravenously (i.v.) or subcutaneously (s.c.). The peptides were dissolved in 0.01 M acetic acid to get 1 μg/μl stock solution, and then diluted with 5% mannitol. Control rats received 5% mannitol only. Blood samples were collected from the jugular vein at selected times and were used for serum preparation. Concentrations of GH in rat sera were determined by ELISA. The relative potencies of tested peptides were calculated using GHRH(1-29)NH2 and JI-38 for comparison, whose potency was defined as 1. The equivalent dosage of GHRH(1-29)NH2 to reach the same level of serum growth hormone release after injection of the specific tested peptide was determined from a GHRH(1-29)NH2 standard curve using Origin 6.0 software. […] Serum GH was determined using the rat Growth Hormone ELISA kit (ALPCO Diagnostics, Mill Valley, Calif.) according to the manufacturer's instruction. Absorbance at 405 nm was measured by a Victor 3 Multi-label Counter (Perkin-Elmer, Waltham, Md.).

GHRH receptor [3] = biological target: T1, GHRH receptor (Homo sapiens, UniProt Q02643); assay: Receptor binding in vitro, 125I-labeled [His1,Nle27]-hGHRH(1-32)NH2, membrane receptors of human anterior pituitary cells (Table 14); conditions: for Relative affinity (Binding potency) compared to JI-38: JI-38 = 1; for Relative affinity (Binding potency) compared to hGHRH(1-29): hGHRH(1-29)NH2 = 1
T1 sequence (Q02643 23-423): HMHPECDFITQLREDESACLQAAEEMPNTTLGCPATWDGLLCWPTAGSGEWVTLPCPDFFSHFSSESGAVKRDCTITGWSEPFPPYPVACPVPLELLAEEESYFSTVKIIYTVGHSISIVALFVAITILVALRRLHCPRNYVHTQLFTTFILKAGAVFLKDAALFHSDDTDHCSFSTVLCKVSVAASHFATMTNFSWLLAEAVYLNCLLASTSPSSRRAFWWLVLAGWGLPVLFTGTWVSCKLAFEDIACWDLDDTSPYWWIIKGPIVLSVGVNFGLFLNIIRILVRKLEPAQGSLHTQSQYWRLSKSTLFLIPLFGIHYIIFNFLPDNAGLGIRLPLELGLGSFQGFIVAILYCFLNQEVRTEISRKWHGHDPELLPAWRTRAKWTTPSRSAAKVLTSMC

GHRH receptor [4] = biological target: T1, GHRH receptor; assay: GHRH receptor binding, competition with 125I-labeled JV-1-42, human pituitary membrane homogenates (Table 7); set-up: Normal human pituitaries were purchased from the National Hormone and Peptide Program; tissue National Hormone and Peptide Program (A.F. Parlow, Harbor-UCLA Medical Center, Torrance, Calif.); host or cells: normal human pituitary, membrane fraction; conditions: for Relative affinity (Binding potency) vs JI-38: JI-38 = 1, Table 7
Source text: Normal human pituitaries were purchased from the National Hormone and Peptide Program (A.F. Parlow, Los Angeles, County Harbor-UCLA Medical Center, Torrance, Calif.).

Relative affinity (Binding potency) compared to JI-38 (GHRH receptor [3]) | Relative affinity (Binding potency) compared to hGHRH(1-29) (GHRH receptor [3]) | Relative affinity (Binding potency) vs JI-38 (GHRH receptor [4]) | Compound | GH releasing potency relative to JI-38 (=1) (GH release [1]; 15 min after) | GH releasing potency relative to JI-38 (=1) (GH release [1]; 30 min after) | Serum GH level at selected time after injection (ng/ml), 0 min (GH release [2]) [ng/mL] | Serum GH level at selected time after injection (ng/ml), 15 min (GH release [2]) [ng/mL] | Serum GH level at selected time after injection (ng/ml), 30 min (GH release [2]) [ng/mL] | Relative potency compared to GHRH(1-29), 15 min (GH release [2]) | Relative potency compared to JI-38, 15 min (GH release [2]) | Relative potency compared to GHRH(1-29), 30 min (GH release [2]) | Relative potency compared to JI-38, 30 min (GH release [2]) | GH-releasing potency after s.c. administration (in words) (GH release [2]) | GHRH receptor binding affinity (in words) (GHRH receptor [3]; compared to JI-38) | IC50 (GHRH receptor [4]; 125I-JV-1-42, human pituitary membranes, Table 7) [nM]
1.34 | 3.75 | 2.18 | CCCC[C@H](NC(=O)[C@@H](NC(=O)[C@H](CC(=O)O)NC(=O)[C@H](CCC(N)=O)NC(=O)[C@H](CC(C)C)NC(=O)[C@H](CC(C)C)NC(=O)[C@H](CCCN)NC(=O)[C@H](CCCNC(=N)N)NC(=O)[C@H](C)NC(=O)[C@H](CO)NC(=O)[C@H](CC(C)C)NC(=O)[C@H](CCC(N)=O)NC(=O)[C@H](CC)NC(=O)[C@H](CC(C)C)NC(=O)[C@@H](NC(=O)[C@H](CCCN)NC(=O)[C@H](CCCNC(=N)N)NC(=O)[C@H](Cc1ccc(O)cc1)NC(=O)[C@H](CO)NC(=O)[C@H](CCC(N)=O)NC(=O)[C@@H](NC(=O)[C@H](Cc1ccccc1)NC(=O)[C@@H](NC(=O)[C@H](C)NC(=O)[C@H](CC(=O)O)NC(=O)[C@H](C)NC(=O)CCc1ccc(O)cc1)[C@@H](C)CC)[C@@H](C)O)C(C)C)[C@@H](C)CC)C(=O)N[C@@H](CC(=O)O)C(=O)N[C@@H](CCCNC(=N)N)C(=O)NCCCCC(N)=O [Peptide P-22327, [Dat^1, Gln^8, Orn^12, Abu^15, Orn^21, Nle^27, Asp^28, Apa^30]hGHRH(1-30)NH2] (Desaminotyrosyl-ADAIFTQSYR[Orn]VL[Abu]QLSAR[Orn]LLQDI[Nle]DR[Ava]-NH2) | 1.15 | 1.30 | 31.5 ± 3.4 | 258.7 ± 31.1 | 138 ± 27.9 | 73.5 | 1.16 | 126.5 | 1.16 | – | – | –
1.09 | 3.04 | 4.03 | CCCC[C@H](NC(=O)[C@@H](NC(=O)[C@H](CC(=O)O)NC(=O)[C@H](CCC(N)=O)NC(=O)[C@H](CC(C)C)NC(=O)[C@H](CC(C)C)NC(=O)[C@H](CCCN)NC(=O)[C@H](CCCNC(=N)N)NC(=O)[C@H](C)NC(=O)[C@H](CO)NC(=O)[C@H](CC(C)C)NC(=O)[C@H](CCC(N)=O)NC(=O)[C@H](CC)NC(=O)[C@H](CC(C)C)NC(=O)[C@@H](NC(=O)[C@H](CCCN)NC(=O)[C@H](CCCNC(=N)N)NC(=O)[C@H](Cc1ccc(O)cc1)NC(=O)[C@H](CO)NC(=O)[C@H](CCC(N)=O)NC(=O)[C@@H](NC(=O)[C@H](Cc1ccccc1)NC(=O)[C@@H](NC(=O)[C@H](C)NC(=O)[C@H](CC(=O)O)NC(=O)[C@H](C)NC(=O)[C@H](Cc1ccc(O)cc1)NC)[C@@H](C)CC)[C@@H](C)O)C(C)C)[C@@H](C)CC)C(=O)N[C@@H](CO)C(=O)N[C@@H](CCCNC(=N)N)C(=O)NC [Peptide P-27405, [N—Me-Tyr^1, Gln^8, Orn^12, Abu^15, Orn^21, Nle^27]hGHRH(1-29)NH—CH3] (H-[NMeY]ADAIFTQSYR[Orn]VL[Abu]QLSAR[Orn]LLQDI[Nle]SR-NHMe) | 1.60 | 1.13 | 21.8 ± 5.9 | 227.9 ± 10.5 | 143.3 ± 6.1 | 62.3 | 0.99 | 135.2 | 1.21 | – | – | –
2.95 | 8.22 | 14.5 | CCCC[C@H](NC(=O)[C@@H](NC(=O)[C@H](CC(=O)O)NC(=O)[C@H](CCC(N)=O)NC(=O)[C@H](CC(C)C)NC(=O)[C@H](CC(C)C)NC(=O)[C@H](CCCN)NC(=O)[C@H](CCCNC(=N)N)NC(=O)[C@H](C)NC(=O)[C@H](CO)NC(=O)[C@H](CC(C)C)NC(=O)[C@H](CCC(N)=O)NC(=O)[C@H](CC)NC(=O)[C@H](CC(C)C)NC(=O)[C@@H](NC(=O)[C@H](CCCN)NC(=O)[C@H](CCCNC(=N)N)NC(=O)[C@H](Cc1ccc(O)cc1)NC(=O)[C@H](CO)NC(=O)[C@H](CCC(N)=O)NC(=O)[C@@H](NC(=O)[C@H](Cc1ccccc1)NC(=O)[C@@H](NC(=O)[C@H](C)NC(=O)[C@H](CC(=O)O)NC(=O)[C@H](C)NC(=O)[C@H](Cc1ccc(O)cc1)NC)[C@@H](C)CC)[C@@H](C)O)C(C)C)[C@@H](C)CC)C(=O)N[C@@H](CC(=O)O)C(=O)N[C@@H](CCCNC(=N)N)C(=O)NC [Peptide P-27406, [N—Me-Tyr^1, Gln^8, Orn^12, Abu^15, Orn^21, Nle^27, Asp^28]hGHRH(1-29) NH—CH3] (H-[NMeY]ADAIFTQSYR[Orn]VL[Abu]QLSAR[Orn]LLQDI[Nle]DR-NHMe) | 0.47 | 0.50 | 21.3 ± 4.8 | 492.6 ± 21.8 | 282 ± 17.8 | 170 | 2.69* | 449.7 | – | significantly higher potencies at 30 minutes than at 15 minutes | – | –

Compound | Relative affinity (Binding potency) compared to JI-38 (GHRH receptor [3]) | Relative affinity (Binding potency) compared to hGHRH(1-29) (GHRH receptor [3]) | Relative affinity (Binding potency) vs JI-38 (GHRH receptor [4]) | GH releasing potency relative to JI-38 (=1) (GH release [1]; 15 min after) | GH releasing potency relative to JI-38 (=1) (GH release [1]; 30 min after) | Serum GH level at selected time after injection (ng/ml), 0 min (GH release [2]) [ng/mL] | Serum GH level at selected time after injection (ng/ml), 15 min (GH release [2]) [ng/mL] | Serum GH level at selected time after injection (ng/ml), 30 min (GH release [2]) [ng/mL] | Relative potency compared to GHRH(1-29), 15 min (GH release [2]) | Relative potency compared to JI-38, 15 min (GH release [2]) | Relative potency compared to GHRH(1-29), 30 min (GH release [2]) | Relative potency compared to JI-38, 30 min (GH release [2]) | GH-releasing potency after s.c. administration (in words) (GH release [2]) | GHRH receptor binding affinity (in words) (GHRH receptor [3]; compared to JI-38) | IC50 (GHRH receptor [4]; 125I-JV-1-42, human pituitary membranes, Table 7) [nM]
CCCC[C@H](NC(=O)[C@@H](NC(=O)[C@H](CC(=O)O)NC(=O)[C@H](CCC(N)=O)NC(=O)[C@H](CC(C)C)NC(=O)[C@H](CC(C)C)NC(=O)[C@H](CCCN)NC(=O)[C@H](CCCNC(=N)N)NC(=O)[C@H](C)NC(=O)[C@H](CO)NC(=O)[C@H](CC(C)C)NC(=O)[C@H](CCC(N)=O)NC(=O)[C@H](CC)NC(=O)[C@H](CC(C)C)NC(=O)[C@@H](NC(=O)[C@H](CCCN)NC(=O)[C@H](CCCNC(=N)N)NC(=O)[C@H](Cc1ccc(O)cc1)NC(=O)[C@H](CO)NC(=O)[C@H](CCC(N)=O)NC(=O)[C@@H](NC(=O)[C@H](Cc1ccccc1)NC(=O)[C@@H](NC(=O)[C@H](C)NC(=O)[C@H](CC(=O)O)NC(=O)[C@@H](C)NC(=O)[C@H](Cc1ccc(O)cc1)N(C)C(C)=O)[C@@H](C)CC)[C@@H](C)O)C(C)C)[C@@H](C)CC)C(=O)N[C@@H](CC(=O)O)C(=O)NCCCCNC(=N)N [Peptide P-20351, [Ac—N—Me-Tyr^1, D-Ala^2, Gln^8, Orn^12, Abu^15, Orn^21, Nle^27, Asp^28, Agm^29] hGHRH(1-29)NH2] (Ac-[NMeY][dA]DAIFTQSYR[Orn]VL[Abu]QLSAR[Orn]LLQDI[Nle]D-Agmatine) | 0.71 | 1.98 | 1.26 | 0.38 | 0.44 | 30.6 ± 7.2 | 90.8 ± 20.3 | 65.4 ± 10.1 | 18.8 | 0.30 | 33.6 | 0.30 | weaker GH-releasing potency | weaker GH-releasing potency and GH receptor binding affinity | 3.44
